# Measurements as given in patent publication US7943577B2, “Alpha-fetoprotein peptides and uses thereof” (Albany Medical College, priority 2001, dated 2011).
# Experiments:
# F98 glioma cells = assay: PCNA and nuclear ERα immunoblot, F98; assay type: cell-based, murine; parameters: key to Total Nuclear Estrogen Receptor / PCNA accumulation: “+” indicates increase; “−” indicates decrease; “NC” indicates no change
# Description: (§1) Cell lines. Glioma cells: C6 cells were cultured in F-12K medium with 18% FBS. F98 cells and GL261 cells were cultured in DMEM with 10% FBS. Head and neck cancer: 22B cells were cultured in DMEM with 10% FBS. Papillary thyroid cancers: BHP2-7 cells and BHP18-21 cells were cultured in DMEM with 10% FBS. Small cell lung cancer: HTB184 cells were cultured in RPMI medium with 10% FBS. Breast cancers: MCF-7 cells were cultured in DMEM (w/o phenol red) with 5% FBS and MDA-MB cells were cultured in DMEM with 10% FBS. Colon cancer: Colo 205 cells were cultured in RPMI medium with 10% FBS. Ovarian cancer: OVCAR-3 cells were culture in RPMI medium with 20% FBS supplemented with insulin. Prostate cancers: LNCaP cells were cultured in RPMI medium with 10% FBS. DU145 cells were cultured in MEM with 10% FBS and PC3 cells were cultured in F-12 medium with 10% FBS. Cervical cancer: HeLa cells were cultured in MEM with 10% FBS. Melanoma cells were cultured in DMEM with 10% FBS. These conditions were determined to maintain cellular production of proliferating cell nuclear antigen (PCNA) at high levels immediately prior to study of AFP-related peptide. All cell cultures were maintained in a 5% CO2/95% O2 incubator at 37 C. Cell fractionation. Fractionation in a microfuge and preparation of nucleoproteins was by our previously reported methods (1-3). Nuclear extracts were prepared by resuspension of the crude nuclei in high salt buffer (hypotonic buffer with 420 mM NaCl and 20% glycerol) at 4° C. with rocking for 1 hr. The supernatants were collected after subsequent centrifugation at 4° C. and 13,000 rpm for 10 min. Immunoblotting. The techniques are standard and have been described in a number of our publications (1-3). In brief, nucleoproteins were separated on discontinuous SDS-PAGE and then transferred by electroblotting to nitocellulose membranes (Millipore, Bedford, Mass.). […] Immunoreactive proteins are detected by chemiluminescence.
# [1] = tested on: DU145 prostate carcinoma cells; assay: PCNA and nuclear ERα immunoblot, DU145; assay type: cell-based, human; parameters: key to Total Nuclear Estrogen Receptor / PCNA accumulation: “+” indicates increase; “−” indicates decrease; “NC” indicates no change
# Description: as §1
# [2] = tested on: MAPK activation and ER phosphorylation in T47-D human breast cancer cells; assay: E2-induced MAPK activation and ER serine-118 phosphorylation in T47-D cells; assay type: cell-based; conditions: E2 10^−8M, 60 m
# Description: Cells were treated with E2 for 60 m and lysed. The nuclear fraction was isolated, separated by gel electrophoresis of the nucleoproteins, and the proteins were transferred to membranes. The resolved nucleoproteins were immunoblotted with anti-phosphoMAPK (activated MAPK, pMAPK) and anti-phosphoER (pER.) The anti-pER is directed to ER's serine-118. The peptides of the invention, at, e.g., […], blocks MAPK E2 activation and E2-induced ER phosphorylation. However, there is no enhancement by E2 of either MAPK activation or ER phosphorylation when E2 is added with the peptides of the invention. It has been shown by Lobehofer et al. (Cell Growth Differ 11: 99-110 (2000)) that pharmacological inhibition of MAPK prevents E2-induced mitogenesis in human breast cancer cell line (MCF-7). Therefore, the peptides of the invention block ER phosphorylation, a step which is required for full transcriptional activity of ER, and as such, the peptides of the invention are useful anti-cancer, e.g., breast cancer, agents.
# The inventors, while not wishing to be limited to a particular method or theory of how the present invention operates, have performed experiments using T-47D cells cultured with estradiol plus peptides of the invention, estradiol alone, peptide alone, or no additives (control). […] There was a corresponding reduction in the phosphorylation of serine 118 on the estrogen receptor. […]
# [3] = tested on: ovarian cancer OVCAR-3 cells; assay: PCNA and nuclear ERα immunoblot, OVCAR-3; assay type: cell-based; parameters: key to Total Nuclear Estrogen Receptor / PCNA accumulation: “+” indicates increase; “−” indicates decrease; “NC” indicates no change
# Description: as §1
# [4] = tested on: BHP 2-7 papillary thyroid cancer cells; assay: PCNA and nuclear ERα immunoblot, BHP 2-7; assay type: cell-based; parameters: key to Total Nuclear Estrogen Receptor / PCNA accumulation: “+” indicates increase; “−” indicates decrease; “NC” indicates no change
# Description: as §1
# [5] = BHP 2-7 (Papillary Thyroid Cancer)
structure (smiles),measurement,setting,value
"C[C@]12CC[C@@H]3c4ccc(O)cc4CC[C@H]3[C@@H]1CC[C@@H]2O [E2, 17β-estradiol]",PCNA accumulation,F98 glioma cells; F98 (Glioma),+
same,Total Nuclear Estrogen Receptor,F98 glioma cells; F98 (Glioma),+
same,nuclear ERα,"F98 glioma cells; F98, 10^−9 M E2 or 10^−6 M AFP-peptide, 24 h",increased nuclear accumulation of ERα
same,PCNA accumulation,[1]; DU 145 (Prostate Cancer),−
same,Total Nuclear Estrogen Receptor,[1]; DU 145 (Prostate Cancer),−
same,nuclear ERα,"[1]; DU145, 10^−9 M E2 or 10^−6 M AFP-peptide, 24 h",did not increase nuclear accumulation of ERα
same,"MAPK activation (pMAPK) and ER serine phosphorylation (pER), nuclear fraction immunoblot",[2],"activates MAPK, e.g., in T47-D human breast cancer cells and serine-phosphorylates ER"
same,PCNA accumulation,[3]; OVCAR-3 (Ovarian Cancer),+
same,Total Nuclear Estrogen Receptor,[3]; OVCAR-3 (Ovarian Cancer),NC
same,nuclear ERα,"[3]; OVCAR-3, 10^−9 M E2 or 10^−7M AFP-peptide, 24 h",did not increase nuclear accumulation of ERα
same,PCNA accumulation,[4]; [5],+
same,Total Nuclear Estrogen Receptor,[4]; [5],+
same,nuclear ERα,"[4]; BHP 2-7, 10^−9 M E2 or 10^−7 M AFP-peptide, 24 h",increased nuclear accumulation of ERα
